The source of these data is publication PMC5498548.

Data set [1] deals with T1, IdeR (Mycobacterium tuberculosis, UniProt P9WMH1). Nature of the data set: EMSA competition experiments with increasing labeled DNA. Format: biochemical. To be noted: DNA 0.8 pmoles to 12.8 pmoles.
For data set [2], the target named is T1, IdeR. Description: biochemical. To be noted: EMSA.
A further data set deals with M. tuberculosis. Nature of the data set: Resazurin microtiter assay (REMA) whole cell MIC90 in broth culture. It is filed as cell-based, Mycobacterium tuberculosis. The conditions noted are these: MB7H9 medium, Mean ± S.E., three experiments; for MIC90: Mycobacterium tuberculosis, read-out: MIC90 of compounds against M. tuberculosis.
The target in data set [3] is T1, IdeR. Description: EMSA with Fe2+ instead of Ni2+: effect of iron on inhibition. It is filed as biochemical. To be noted: 100 µM Fe2+, 100 µg/ml compound. On the technique in general: Mobility shift assays separate free from complexed probe on a gel.
Data set [4] relates to THP-1 (human monocytic macrophage cell line). Description: Cytotoxicity by REMA in THP-1. It is filed as cell-based. The conditions noted are these: for IC50: Homo sapiens, THP-1, 1-200 µg/ml, read-out: Inhibition in THP1 (IC50 in µg/ml). On the procedure:
(§1) The cytotoxicity of the compounds was determined by employing REMA using various mammalian cell lines such as THP-1 (human monocytic macrophage cell line), HEK (Human Embryonic Kidney cell line), MDCK (Madine darby canine kidney cell line) and HepG2 (Human hepatocellular carcinoma cell line). 1 × 10^4 cells/well were employed in a sterilized 96-well plate containing serial dilutions of compounds ranging from 1 µg/ml to 200 µg/ml concentration, in their respective media (RPMI for THP-1, DMEM for HEK and HepG2 and MEM for MDCK) with 10% fetal bovine serum and Antibiotic-Antimycotic mix (Invitrogen Corporation, Carlsbad, California, USA). IC50 is defined as the concentration of the compound that causes 50% reduction in the fluorescence intensity indicating 50% viable cells. IC50 values were determined from the results of at least two independent tests and Mean ± S.E.M was calculated from the inhibition curve using GraphPad Prism 5.

In data set [5] the test system is MDCK (Madine darby canine kidney cell line). Nature of the data set: Cytotoxicity by REMA in MDCK. The conditions noted are these: Canis lupus familiaris, MDCK, 1-200 µg/ml, read-out: Inhibition in MDCK (IC50 in µg/ml). It is filed as cell-based. The method, then:
as §1

Data set [6] concerns HEK (Human Embryonic Kidney cell line). Description: Cytotoxicity by REMA in HEK. Format: cell-based. The conditions noted are these: Homo sapiens, 1-200 µg/ml, read-out: Inhibition in HEK (IC50 in µg/ml). The method, then:
as §1

Data set [7] deals with intracellular M. tuberculosis H37Rv. Description: Inhibition of intracellular M. tuberculosis in PMA activated THP-1 cells, spotting on agar plates. It is filed as cell-based, Mycobacterium tuberculosis.
The subject of data set [8] is HepG2 (Human hepatocellular carcinoma cell line). Nature of the data set: Cytotoxicity by REMA in HepG2. The conditions noted are these: Homo sapiens, HepG2, 1-200 µg/ml, read-out: Inhibition in HepG2 (IC50 in µg/ml). It is filed as cell-based. The method, then:
as §1

The target of data set [9] is T2, IdeR (Mycobacterium tuberculosis, UniProt P9WMH1 1-230).
T2 sequence: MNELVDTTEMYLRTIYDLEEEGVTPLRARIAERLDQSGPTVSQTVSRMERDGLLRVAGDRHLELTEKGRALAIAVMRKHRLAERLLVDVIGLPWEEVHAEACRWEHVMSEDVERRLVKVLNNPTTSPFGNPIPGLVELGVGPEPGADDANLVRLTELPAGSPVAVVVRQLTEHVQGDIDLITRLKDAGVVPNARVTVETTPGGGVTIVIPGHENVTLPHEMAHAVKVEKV
Description: EMSA. The conditions noted are these: protein: recombinant; tags: vector pET28c NdeI/HindIII (His-tag, Ni-NTA purified); C-terminal streptactin tag from reverse primer; chain copies: 4; label: Cy5 at 5' end of both strands; blunt (only sense strand printed).

Setting [10] is: 0.35 µg IdeR, 0.8 picomoles labeled DNA, 200 µM NiSO4, inhibitor 0.4-100 µg/ml, read-out: IC50 (µg/ml) (converted).
[11] abbreviates: same values given in µM, read-out: IC50.
The mark [12] stands for this setting: at 500 μg/ml (highest concentration tested), infected THP-1, 5 days.
The mark [13] stands for this setting: at concentrations lower than 500 μg/ml (100 to 400 μg/ml), infected THP-1.

In brackets after ≈: the same amount, converted by molar mass. Several values for one entry are separate records, joined by “and”; a condition that tells them apart may be missing. Equal values may be shown once. Entries after “also recorded” stand apart in the source; their conditions may differ. Where a name gives a salt, the structure may show the parent alone. Read-outs that look alike come from different tables or passages of the source. Bounds are passed on as bounds.

Take `Nc1ccc(-c2nc3ccccc3s2)cc1S(=O)(=O)O` [Compound I-8, 2amino-5-(1,3-benzothiazol-2-yl) benzene sulfonic acid ammoniate]: the “mode of inhibition in competition with DNA” value (“mode of inhibition” below) at IdeR [1] is listed as “competing with DNA”. For the same molecule, the IC50 on IdeR [2] (setting [10]) is ≤ 81.6 µM and 78 µM; at IdeR [2] (setting [11]), 74 µM. Further, the “MIC90 of compounds against M. tuberculosis (µg/ml)” value with M. tuberculosis was “no inhibition”.

Take `O=C(O)C1(Cc2ccc(O)c(O)c2)NCCS1` (stereo not shown) [Compound I-20, 2-(3,4-dihydroxybenzyl)-1,3-thiazolidine-2-carboxylic acid]: at IdeR [3], the “effect of iron on the inhibitory potential” value is “no effect”. Moreover, at IdeR [1], the “mode of inhibition” value is on record as “competing with DNA”. The IC50 on IdeR [2] (setting [10]) and at IdeR [2] (setting [11]) was 9.56 µM each time.

With `Cc1nn(-c2ccccc2)c2c1N=C(C(=O)O)CC(c1ccccc1)=N2` [Compound I-33, 3-methyl-1,7-diphenyl-1,6-dihydropyrazolo[3,4-b][1,4]diazepine-5-carboxylic acid], the IC50 in [4] was over 200 µg/mL; in data set [5], over 200 µg/mL; in data set [6], over 200 µg/mL; in data set [8], over 200 µg/mL; at IdeR [2] (setting [10]), 63 µM and 63.1 µM; on IdeR [2] (setting [11]) it was 63 µM. The entries for the “growth of intracellular M. tuberculosis on agar plates” value (“growth” below) in data set [7] (setting [12]) and in [7] (setting [13]) were “negligible inhibition” and “unaffected”, respectively. Besides, the “MIC90 of compounds against M. tuberculosis” value against M. tuberculosis was 93 mg/L and 93.3 ± 8.16 mg/L. In addition, the MIC90 in the data set on M. tuberculosis came to 93.3 mg/L (≈ 271 µM).

`Cc1ccc(C2=Nc3c(c(C)nn3-c3ccccc3)N=C(C(=O)O)C2)cc1` [Compound I-34, 3-methyl-7-(4-methylphenyl)-1-phenyl-1,6-dihydropyrazolo[3,4-b][1,4]diazepine-5-carboxylic acid]: the IC50 in data set [4] was over 200 µg/mL; in [5], over 200 µg/mL; in [6], over 200 µg/mL; in data set [8], over 200 µg/mL; on IdeR [2] (setting [10]), ≤ 69.8 µM and 17 µM and 16.7 µM; at IdeR [2] (setting [11]) it was 17 µM. In addition, the “growth” value in data set [7] (setting [12]) is “negligible inhibition; also recorded: unable to limit the growth of intracellular bacteria”; in [7] (setting [13]) it was “unaffected”. Further, the “effect of iron on the inhibitory potential” value on IdeR [3] is “no effect”. Moreover, the “mode of inhibition” value on IdeR [1] is given as “competing with DNA”. Also, the “MIC90 of compounds against M. tuberculosis” value against M. tuberculosis was 86 mg/L and 86.6 ± 7.8 mg/L. In the data set with M. tuberculosis, the MIC90 is 86.6 mg/L (≈ 242 µM).

As to `CC(NCc1c(O)ccc2ccc(=O)oc12)C(=O)O` (stereo not shown) [Compound I-39], the “mode of inhibition” value on IdeR [1] is “competing with DNA”. Besides, the IC50 at IdeR [2] (setting [10]) was 53.9 µM; at IdeR [2] (setting [11]), 54 µM.

With `O=S(=O)(O)c1ccc(O)c(N=Nc2c(O)ccc3ccccc23)c1` [Compound I-42, Benzene sulfonic acid,4-hydroxy-3-[(2-hydroxy-1-naphthalenyl)azo]-monosodium salt], the “effect of iron on the inhibitory potential” value on IdeR [3] is on record as “no effect”. Moreover, the “mode of inhibition” value at IdeR [1] is on record as “competing with DNA”. The IC50 on IdeR [2] (setting [10]) was ≤ 72.6 µM and 2.9 µM; on IdeR [2] (setting [11]) it was 2.72 µM.

Regarding `Cc1ccc(S(=O)(=O)C2CC(=O)N(c3ccc(F)c(Cl)c3)C2=O)cc1` (stereo not shown) [Compound I-108, 1-(3-chloro-4-fluorophenyl)-3-[(4-methylphenyl)sulfonyl]pyrrolidine-2,5-dione], the “Inhibition in THP1 (IC50 in µg/ml)” value in [4] (1-200 µg/ml) is given as “slight toxicity”. Moreover, the IC50 in data set [4] was 168 ± 5.6 µg/mL (≈ 439 µM); in data set [5], over 200 µg/mL; in data set [6] it was over 200 µg/mL; in [8], over 200 µg/mL; on IdeR [2] (setting [10]) it was 62.9 µM and 63.6 µM; at IdeR [2] (setting [11]), 63.6 µM. Also, the “growth” value in [7] (at 150 μg/ml and 125 μg/ml, infected THP-1, 5 days) is listed as “only a few pin pointed colonies; also recorded: pin point colonies; also recorded: able to limit the growth of intracellular bacteria”; in [7] (at lower concentrations (100 to 25 μg/ml), infected THP-1, 5 days) it was “prominent growth of bacilli”. Besides, in the data set on M. tuberculosis, the “MIC90 of compounds against M. tuberculosis” value was found to be 17.5 ± 3.06 mg/L. The MIC90 with M. tuberculosis turned out to be 17.5 mg/L (≈ 45.8 µM).

B1: mbtA-mbtB intergenic IdeR binding region oligo (dsDNA)
DNA 1: CCCTGTTAGCACAGGCTGCCCTAATTTTAGTG
DNA 2: CACTAAAATTAGGGCAGCCTGTGCTAACAGGG
With B1, in the data set with IdeR [9], the binding result was “binds”.

Broadly, the MIC90 is an inhibitory concentration at the 90% level, which refers to growth in some studies and to a panel of isolates in others.
